Results as given in patent publication US11072812B2, “Substrates for covalent tethering of proteins to functional groups or solid surfaces” (PROMEGA CORPORATION, priority 2013, dated 2021).
Entries after “also recorded” stand apart in the source; their conditions may differ. One block for each compound: values may come before it.

Columns and labels:
[1] = molecular target: T1, glucocorticoid receptor (GR) (Homo sapiens, UniProt P04150); experiment: Glucocorticoid receptor competitor assay (fluorescence polarization, Life Technology); format: binding; details: dexamethasone-chloroalkane conjugates (carbamate linker = PBI-4980)
T1 construct: purchased Life Technology
T1 sequence (P04150 1-777): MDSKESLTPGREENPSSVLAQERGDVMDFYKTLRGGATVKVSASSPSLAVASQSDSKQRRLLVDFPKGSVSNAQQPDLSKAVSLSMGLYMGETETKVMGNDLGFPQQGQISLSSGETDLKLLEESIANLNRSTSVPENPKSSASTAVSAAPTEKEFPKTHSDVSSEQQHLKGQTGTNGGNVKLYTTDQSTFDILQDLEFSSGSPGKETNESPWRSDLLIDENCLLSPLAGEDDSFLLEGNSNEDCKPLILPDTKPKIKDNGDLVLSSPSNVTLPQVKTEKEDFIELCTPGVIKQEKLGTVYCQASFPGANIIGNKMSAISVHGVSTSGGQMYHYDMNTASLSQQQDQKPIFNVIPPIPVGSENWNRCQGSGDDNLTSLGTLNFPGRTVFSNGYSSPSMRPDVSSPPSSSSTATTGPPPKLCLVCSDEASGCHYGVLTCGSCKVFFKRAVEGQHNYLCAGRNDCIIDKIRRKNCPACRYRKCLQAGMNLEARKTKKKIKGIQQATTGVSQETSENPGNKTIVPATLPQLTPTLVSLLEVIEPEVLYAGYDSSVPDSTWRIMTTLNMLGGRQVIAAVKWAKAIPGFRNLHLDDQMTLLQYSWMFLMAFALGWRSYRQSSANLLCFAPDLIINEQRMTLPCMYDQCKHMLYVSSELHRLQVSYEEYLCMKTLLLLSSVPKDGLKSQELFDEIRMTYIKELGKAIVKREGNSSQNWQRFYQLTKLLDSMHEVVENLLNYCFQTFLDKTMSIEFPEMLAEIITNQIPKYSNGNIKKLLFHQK
Description: c) Binding efficiency to the target glucocorticoid receptor (GR) was done using the glucocorticoid receptor competitor assay (Life Technology) as recommended by the manufacturer.

HaloTag® protein [2] = experiment: Binding efficiency/kinetics to HaloTag protein in cell lysate (chase with fluorescent HaloTag ligand, SDS-PAGE); details: 1 μM; for binding efficiency / labeling kinetics to HaloTag protein in lysate: methotrexate-chloroalkane conjugates, 0-60 min (O4 = PBI-4849, O6 = PBI-4850)
Method: (§1) a) Binding efficiency to HaloTag® protein in lysate was measured by adding the methotrexate-chloroalkane conjugates to lysate from cells expressing a HaloTag® protein to a final concentration of 1 μM. Following 0-60 mins of binding, the reactions were chased with 1 μM fluorescent HaloTag® ligand. Unbound HaloTag® protein was detected through binding to the fluorescent HaloTag® ligand followed by analysis on SDS-PAGE gel and detection on a fluorescent gel scanner.
as §1, with “adding the dexamethasone-chloroalkane conjugates to” for “adding the methotrexate-chloroalkane conjugates to”, “the fluorescent HaloTag ligand followed” for “the fluorescent HaloTag® ligand followed”
a) Binding kinetics to HaloTag® protein in cell lysate was measured by adding the modified BIRB796-chloroalkane conjugates to lysate from cells expressing a HaloTag® protein at a final concentration of 1 μM. After 0-60 min of binding, the reactions were chased with 1 μM fluorescent HaloTag® ligand (Promega Corporation). Unbound HaloTag® protein was detected through binding to the fluorescent HaloTag® ligand followed by analysis on SDS-PAGE and detection on a fluorescent gel scanner.
Following 0-60 min of binding, the reactions were chased with 1 μM fluorescent HaloTag® ligand. Unbound HaloTag® protein was detected through binding to the fluorescent HaloTag® ligand followed by analysis on SDS-PAGE and detection on a fluorescent gel scanner.
a) Binding kinetics to HaloTag® protein in cell lysate was measured by adding the dasatinib-chloroalkane conjugates to lysate (final concentration of 1 μM) from cells expressing a HaloTag® protein. Following 0-60 min of binding, the reactions were chased with 1 μM fluorescent HaloTag® ligand. Unbound HaloTag® protein was detected through binding to the fluorescent HaloTag® ligand followed by analysis on SDS-PAGE and detection on a fluorescent gel scanner.

HaloTag® protein [3] = experiment: Binding efficiency/kinetics to HaloTag protein in cells (cell permeability; chase with fluorescent HaloTag ligand, SDS-PAGE); format: cell-based; details: 10 μM
Method: b) Binding efficiency to HaloTag® protein in cells was measured by adding the methotrexate-chloroalkane conjugates to cells expressing a HaloTag® protein to a final concentration of 10 μM. Following 0-120 mins of binding, the reactions were chased with 5 μM fluorescent HaloTag® ligand. Unbound HaloTag® protein was detected through binding to the fluorescent HaloTag® ligand followed by cell lysis, analysis on a SDS-PAGE gel and detection on a fluorescent gel scanner.
b) Binding efficiency to HaloTag® protein in cells was measured by adding the dexamethasone-chloroalkane conjugates to cells expressing a HaloTag® protein to a final concentration of 10 μM. Following 0-60 mins of binding, the reaction was chased with 5 μM fluorescent HaloTag ligand. Unbound HaloTag® protein was detected through binding to the fluorescent HaloTag® ligand followed by cell lysis, analysis on SDS-PAGE gel and detection on a fluorescent gel scanner.
b) Binding kinetics to HaloTag® protein in cells was measured by adding the modified BIRB796-chloroalkane conjugates to cells expressing a HaloTag® protein at a final concentration of 10 μM. Following 0-60 min of binding, the reactions were chased with 5 μM fluorescent HaloTag® ligand. Unbound HaloTag® protein was detected through binding to the fluorescent HaloTag® ligand followed by cell lysis, analysis on SDS-PAGE and detection on a fluorescent gel scanner.
Following 0-180 min of binding, the reactions were chased with 5 μM fluorescent HaloTag® ligand. Unbound HaloTag® protein was detected through binding to the fluorescent HaloTag® ligand followed by cell lysis, analysis on SDS-PAGE and detection on a fluorescent gel scanner.
b) Binding kinetics to HaloTag® protein in cells was measured by adding the dasatinib-chloroalkane conjugates (final concentration of 10 μM) to cells expressing a HaloTag protein which localized to the cytoplasm or the nucleus. Following 0-90 min of binding, the reactions were chased with 5 μM fluorescent HaloTag® ligand. Unbound HaloTag® protein was detected through binding to the fluorescent HaloTag® ligand followed by cell lysis, analysis on SDS-PAGE and detection on a fluorescent gel scanner.

NanoLuc:GR fusion = molecular target: T2, NanoLuc:GR fusion (Homo sapiens, UniProt P04150); experiment: Pull-down of NanoLuc:GR fusion from live HEK293 cells onto HaloTag protein beads; format: cell-based; details: HEK293, 10 μM conjugate, 2 h; beads 45 min; release with 150 μM dexamethasone; PBI-4980 compared with PBI-4025
T2 construct: expressed in transfected cells; host or cells: HEK293
T2 sequence (P04150 1-777): T1 sequence (P04150 1-777)
Method: HEK293 cells were plated and transfected using PEI with plasmid DNA encoding NanoLuc:GR fusion in wells of a 96-well plate. The DNA was diluted 1:50 with a promoterless carrier DNA plasmid (pCI neo) to a final concentration of 80 ng total DNA per well. Twenty-four hours post-transfection, cells were serum starved for additional 24 hours then incubated with a final concentration of 10 μM PBI-4980 or PBI-4025 while control cells were not treated with the conjugated drug. Following equilibration binding of 2 h, the media was removed, cells quickly washed with PBS and lysed in detergent-based lysis buffer for 10 min. Cell lysates were than transferred to wells of a 96-well plate containing 0.5 μl settled paramagnetic HaloTag® protein beads and incubated with shaking for 45 min. Following binding the unbound fraction was removed, the HaloTag® protein paramagnetic beads were washed 3×, and the captured NanoLuc fusion was specifically released from the beads by competition with 150 μM unconjugated Dexamethasone for 60 min. The released NanoLuc:GR (+PBI-4980 or +PBI-4025) and control samples were detected by using the NanoGlo® assay reagent (Promega Corp).

[4] = molecular target: T3, NanoLuc-DHFR fusion protein (Homo sapiens, UniProt P00374); experiment: Pull-down of NanoLuc-DHFR fusion from living HEK293 cells onto HaloTag protein beads; format: cell-based; details: HEK293, 10 uM conjugate, 2 h; beads 45 min; release with 150 μM methotrexate
T3 construct: expressed in transfected cells; host or cells: HEK293
T3 sequence (P00374 1-187): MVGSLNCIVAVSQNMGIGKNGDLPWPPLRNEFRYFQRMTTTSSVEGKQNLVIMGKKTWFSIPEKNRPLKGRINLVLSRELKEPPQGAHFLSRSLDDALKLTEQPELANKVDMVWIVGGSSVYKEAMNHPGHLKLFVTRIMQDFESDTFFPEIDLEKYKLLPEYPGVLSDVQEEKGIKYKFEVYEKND
Method: HEK293 cells were plated and transfected using PEI with plasmid DNA encoding a NANOLUC-DHFR fusion in wells of a 96-well plate. The DNA was diluted 1:50 with a promoterless carrier DNA plasmid (pCI) to a final concentration of 80 ng total DNA per well. Twenty-four hours post-transfection, cells were serum starved for additional 24 hours and then treated with […] 10 uM PBI-4848 or PBI-5015 while control cells were not treated with the conjugated drug. Following equilibration binding of 2 h, the media was removed, and the cells quickly washed with PBS and lysed in detergent-based lysis buffer for 10 min. Cell lysates were then transferred to wells of a 96-well plate containing 0.5 μl settled paramagnetic HALOTAG protein beads and incubated with shaking for 45 min. Following binding, the unbound fraction was removed, the HALOTAG protein paramagnetic beads washed, 150 μM unconjugated methotrexate added, and the captured NANOLUC:DHFR specifically released from the beads by competition with the unconjugated methotrexate for 60 min. The released NANOLUC:DHFR (+PBI-5015 or +PBI-4848) and control samples were detected by NANOGLO luciferase detection reagent.

[5] = molecular target: T4, ABL-NanoLuc® fusion protein (Homo sapiens, UniProt P00519); experiment: Pull-down of ABL-NanoLuc fusion from live HEK293 cells onto HaloTag protein beads; format: cell-based; details: HEK293, 20 μM conjugate, 2 h; beads 15 min; release with 400 μM dasatinib
T4 construct: expressed in transfected cells; host or cells: HEK293
T4 sequence (P00519 whole entry, the tested form may be a part): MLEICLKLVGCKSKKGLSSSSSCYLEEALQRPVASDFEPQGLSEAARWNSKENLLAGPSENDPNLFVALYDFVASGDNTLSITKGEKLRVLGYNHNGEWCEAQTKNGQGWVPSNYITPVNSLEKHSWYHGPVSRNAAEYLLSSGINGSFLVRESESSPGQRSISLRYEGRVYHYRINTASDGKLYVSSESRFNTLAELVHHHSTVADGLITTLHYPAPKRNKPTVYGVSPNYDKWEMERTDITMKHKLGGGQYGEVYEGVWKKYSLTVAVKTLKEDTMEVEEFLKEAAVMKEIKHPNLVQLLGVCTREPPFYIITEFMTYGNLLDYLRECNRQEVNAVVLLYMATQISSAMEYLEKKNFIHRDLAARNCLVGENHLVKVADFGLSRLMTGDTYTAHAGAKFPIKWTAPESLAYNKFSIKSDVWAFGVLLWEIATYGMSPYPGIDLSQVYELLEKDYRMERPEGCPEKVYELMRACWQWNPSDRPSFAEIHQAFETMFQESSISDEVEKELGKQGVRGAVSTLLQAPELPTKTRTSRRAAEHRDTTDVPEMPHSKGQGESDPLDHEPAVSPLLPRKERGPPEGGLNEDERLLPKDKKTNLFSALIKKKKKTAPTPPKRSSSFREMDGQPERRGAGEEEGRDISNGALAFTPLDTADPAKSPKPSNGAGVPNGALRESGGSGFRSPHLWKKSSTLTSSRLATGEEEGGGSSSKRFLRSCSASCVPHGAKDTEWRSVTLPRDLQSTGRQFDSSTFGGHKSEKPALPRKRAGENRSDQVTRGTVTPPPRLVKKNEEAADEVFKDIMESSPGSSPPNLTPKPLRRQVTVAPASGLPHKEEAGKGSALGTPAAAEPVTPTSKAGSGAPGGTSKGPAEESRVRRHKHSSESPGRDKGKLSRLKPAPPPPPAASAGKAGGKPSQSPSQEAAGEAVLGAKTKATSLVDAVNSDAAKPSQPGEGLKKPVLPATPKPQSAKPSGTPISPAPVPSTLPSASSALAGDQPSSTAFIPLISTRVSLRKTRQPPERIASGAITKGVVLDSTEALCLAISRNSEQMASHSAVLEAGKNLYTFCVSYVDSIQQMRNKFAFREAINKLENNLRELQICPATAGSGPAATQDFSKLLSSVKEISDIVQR
Method: c) The 2 carbamate linkers were also compared for their ability to specifically pull down a ABL-NanoLuc® fusion protein from live cells. HEK293 cells were transfected using PEI with plasmid DNA encoding ABL-NanoLuc® fusion (transfection was done in a 96-well format). The DNA was diluted 1:100 with a promoterless carrier DNA plasmid (pCI-neo; Promega Corporation) to a final concentration of 80 ng total DNA per well. Twenty-four hours post-transfection, cells were incubated with a final concentration of 20 μM PBI-5270 or PBI-5590 while control cells were not treated with the conjugated drug. Following equilibration binding of 2 h, the media was removed; cells were quickly washed with PBS; and cells lysed in detergent-based lysis buffer for 10 min. Cell lysates were then transferred to a 96-well plate containing 0.5 μl settled paramagnetic HaloTag® protein beads and incubated with shaking for 15 min. Following binding, the unbound fraction was removed, the HaloTag® protein paramagnetic beads were washed 3×, and the captured ABL-NanoLuc® fusion was specifically released from the beads by competition with 400 μM unconjugated dasatinib for 15 min. The released ABL-NanoLuc® fusion in the experiment (+PBI-5270 or +PBI-5590) and control samples was detected by NanoGlo® reagent.

[6] = methotrexate-chloroalkane conjugates, 0-120 min (O4 = PBI-4849, O6 = PBI-4850)

Compound: C[C@@H]1CC2[C@@H]3CCC4=CC(=O)C=C[C@]4(C)[C@@]3(F)[C@@H](O)C[C@]2(C)[C@@]1(O)C(=O)NCCOCCOCCOCCOCCC(=O)NCCOCCOCCCCCCCl (some centres unmarked) [PBI-4025]
affinity / binding efficiency to glucocorticoid receptor [1]: highest affinity; also recorded: best binding efficiency; also recorded: higher affinity

Compound: CC(C)(C)c1cc(NC(=O)Nc2ccccc2)n(-c2cccc(CNC(=O)CNC(=O)CCC(=O)NCCOCCOCCCCCCCl)c2)n1 [PBI-4832, BIRB* O2 Chloroalkane]
binding kinetics to HaloTag protein in cell lysate (HaloTag® protein [2]; modified BIRB796-chloroalkane conjugates, 0-60 min): fast binding kinetics

Compound: CN(Cc1cnc2nc(N)nc(N)c2n1)c1ccc(C(=O)NC(CCC(=O)NCCOCCOCCCCCCCl)C(=O)O)cc1 (centres unmarked) [PBI-4848, Methotrexate-O2 Chloroalkane]
binding efficiency / labeling kinetics to HaloTag protein in lysate (HaloTag® protein [2]): fast labeling kinetics
cell permeability/binding efficiency to HaloTag protein in cells (HaloTag® protein [3]; [6]): best cell permeability and binding efficiency; also recorded: higher cell permeability

Compound: C[C@@H]1CC2[C@@H]3CCC4=CC(=O)C=C[C@]4(C)[C@@]3(F)[C@@H](O)C[C@]2(C)[C@@]1(O)C(=O)NCCCCCNC(=O)OCCOCCOCCOC(=O)NCCOCCOCCCCCCCl (some centres unmarked) [PBI-4980, Dexamethasone Carbamate Chloroalkane]
binding kinetics to HaloTag protein in lysate (HaloTag® protein [2]; dexamethasone-chloroalkane conjugates, 0-60 min): faster binding kinetics
cell permeability/binding efficiency to HaloTag protein in cells (HaloTag® protein [3]; dexamethasone-chloroalkane conjugates, 0-60 min (O4 = PBI-4026, O6 = PBI-4025)): best cell permeability/binding efficiency
affinity / binding efficiency to glucocorticoid receptor [1]: best binding efficiency
affinity / binding efficiency to glucocorticoid receptor ([1]; listed as carbamate linker): highest affinity
efficiency of Nluc:GR fusion pull down (NanoLuc:GR fusion): significantly higher

Compound: CN(Cc1cnc2nc(N)nc(N)c2n1)c1ccc(C(=O)NC(CCC(=O)NCCCCCNC(=O)OCCOCCOCCOC(=O)NCCOCCOCCCCCCCl)C(=O)O)cc1 (centres unmarked) [PBI-5015, Methotrexate Carbamate Chloroalkane]
binding efficiency / labeling kinetics to HaloTag protein in lysate (HaloTag® protein [2]): fast labeling kinetics
cell permeability/binding efficiency to HaloTag protein in cells (HaloTag® protein [3]; [6]): good cell permeability and binding efficiency; also recorded: best cell permeability and binding efficiency
pull-down of Nluc:DHFR fusion from living cells [4]: efficiently pulled down

pull-down of ABL:NanoLuc fusion from live cells [5]: pulled down efficiently
Compound: Cc1nc(Nc2ncc(C(=O)Nc3c(C)cccc3Cl)s2)cc(N2CCN(CCOC(=O)NCCCCCNC(=O)OCCOCCOCCOC(=O)NCCOCCOCCCCCCCl)CC2)n1 [PBI-5270, Dasatinib Bis-Carbamate]

Compound: Cc1nc(Nc2ncc(C(=O)Nc3c(C)cccc3Cl)s2)cc(N2CCN(CCOC(=O)NCCOCCOCCCCCCCl)CC2)n1 [PBI-5590, Dasatinib Monocarbamate]
binding kinetics to HaloTag protein in cell lysate (HaloTag® protein [2]; dasatinib-chloroalkane conjugates, 0-60 min, compared with PBI-5270): faster binding kinetics
